“Also recorded” adds a separate entry of the source.
Assays:
[1] = system: ERK-mediated phosphorylation of Elk-1 on S383; assay: ERK-mediated Elk-1 phosphorylation (Ser383), immunoblot in EGF-stimulated HeLa cells; assay type: cell-based, human
Protocol: Prior to harvesting, cells were pre-incubated with the test compounds for 15-20 minutes and then stimulated with EGF or anisomycin to activate the ERK or p38 MAP kinase pathways, respectively. […] The lysates then were diluted with an equal volume of 2X SDS-sample buffer and the proteins were separated on SDS-PAGE for immunoblot analysis. Immunoblot analysis was done as previously described (41-43).
Cells were treated with EGF to activate the ERK pathway and phosphorylation of Elk-1 on the ERK site at S383 was detected by immunoblot analysis (FIG. 5C). […] The effects of the test compounds were also tested with Rsk-1, another ERK substrate involved in regulating cell proliferation.

[2] = biological target: T1, ERK2 (Mus musculus, UniProt P63085); assay: Fluorescence titration (quenching of intrinsic ERK2 fluorescence); assay type: binding
T1 construct: (His)x6; made in house; host or cells: bacteria
T1 sequence (P63085 whole entry): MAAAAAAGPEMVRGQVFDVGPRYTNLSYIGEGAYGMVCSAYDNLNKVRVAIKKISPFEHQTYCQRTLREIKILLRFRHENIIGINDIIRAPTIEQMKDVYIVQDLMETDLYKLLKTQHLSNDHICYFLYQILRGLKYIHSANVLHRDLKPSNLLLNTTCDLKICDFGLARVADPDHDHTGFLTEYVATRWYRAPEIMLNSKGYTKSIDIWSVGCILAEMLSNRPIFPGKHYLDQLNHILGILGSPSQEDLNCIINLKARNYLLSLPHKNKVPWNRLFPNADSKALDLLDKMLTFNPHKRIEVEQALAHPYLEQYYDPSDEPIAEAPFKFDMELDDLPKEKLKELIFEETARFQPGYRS
Protocol: (§1) Experiments measure the changes in the intrinsic ERK2 fluorescence due to the presence of aromatic amino acids, with the indole group of tryptophan being the major fluorophore with absorption and emission maxima around 280 and 340 nanometers (nm), respectively. Fluorescence spectra were recorded with a Luminescence Spectrometer LS50 (Perkin Elmer, Boston, Mass.). For all experiments, ERK2 protein was diluted into 20 mM Tris-HCl, pH 7.5. Titrations were performed by increasing the test compound concentration while maintaining the ERK2 protein concentration at 3 μM.
The excitation wavelength was 295 nm and fluorescence was monitored from 300 to 500 nm. All reported fluorescence intensities are relative values and are not corrected for wavelength variations in detector response. Dissociation constants, KD, were determined using reciprocal plots, 1/ν vs 1/[I], where ν represents the percent occupied sites calculated assuming fluorescence quenching to be directly proportion to the percentage of occupied binding sites, [I] represents the concentration of the inhibitor compound and the slope of the curve equals the KD (48-49).
ERK2 contains three tryptophans, which have intrinsic fluorescence. Fluorescence quenching of ERK2 by the test compounds is indicative of binding interactions and potential protein conformational changes.

[3] = biological target: T2, ERK2 T157A (Mus musculus, UniProt P63085, T157A); assay: Fluorescence titration with ERK2 point mutant T157A (ED domain); assay type: binding; conditions: fluorescence quenching
T2 construct: (His)x6; made in house; host or cells: bacteria (as described for ERK2 in general; not repeated for the mutant)
T2 sequence (P63085 whole entry T157A, the tested form may be a part): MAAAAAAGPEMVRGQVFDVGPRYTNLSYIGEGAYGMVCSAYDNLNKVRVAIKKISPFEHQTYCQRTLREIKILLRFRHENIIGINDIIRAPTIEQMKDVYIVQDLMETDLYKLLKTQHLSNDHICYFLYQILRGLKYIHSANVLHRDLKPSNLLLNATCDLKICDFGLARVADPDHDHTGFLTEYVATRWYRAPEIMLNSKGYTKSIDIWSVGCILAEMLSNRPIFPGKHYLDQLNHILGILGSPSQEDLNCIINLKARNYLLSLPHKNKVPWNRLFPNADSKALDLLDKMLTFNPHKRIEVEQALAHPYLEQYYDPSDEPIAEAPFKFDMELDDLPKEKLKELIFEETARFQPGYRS
Protocol: as §1, with “Direct binding interactions between ERK2 and the biologically active compounds is determined using fluorescence spectroscopy (47). Experiments” for “Experiments”
Unphosphorylated and phosphorylated ERK2 typically are incubated with […] of the biologically active compounds and the fluorescence intensity is measured. If necessary, higher inhibitor concentrations are used to saturate fluorescence quenching. The excitation wavelength was 295 nm and fluorescence was monitored from 300 to 500 nm. All reported fluorescence intensities are relative values and are not corrected for wavelength variations in detector response. […] Because the test compounds contain aromatic structures, the emission spectra of the active compounds in the absence of ERK2 is be determined. […]

[4] = system: A549 lung carcinoma cells; assay: Colony formation assay, A549 cells; assay type: cell-based, human; conditions: colony formation dose response (FIG. 7C)
Protocol: HeLa, A549, or SUM-159 cells were plated at a low density of ˜200-400 cells per well in the absence or presence of putative ERK docking domain inhibitors. Cell colonies were stained with crystal violet and counted after 6-10 days. In FIG. 7A cells were grown on 10 cm plates in the absence (−) or presence of 100 mM of compound 67, 36, 68, 81, or 76. Colony formation dose response in the presence of the indicated concentrations of compound 76 or 81 for Hela cells (100 mM) (FIG. 7B), A549 cells (50 mM) (FIG. 7C), or SUM-159 cells (50 mM) (FIG. 7D).
(§2) Trypsinized cells were plated on 12 or 24 well plates at low densities (200-400 cells per well) in the absence (DMSO only) or presence of test compounds. In additional experiments, cells were first allowed to adhere to the culture dishes for 16 hours prior to treatment with test compounds. The treated cells received a single dose of the test compounds at the beginning of the experiments. The control and treated cells were grown for 8-14 days to allow the formation of colonies. Cells then were fixed for 10 minutes in 4% paraformaldehyde and stained with 0.2% crystal violet (in 20% methanol) for 1-2 minutes. Following several washes with distilled water, the colonies (containing at least 40 cells) were counted. Each individual experiment was repeated on at least 3 separate occasions.

[5] = system: HT1080 fibrosarcoma cells; assay: Cell proliferation, HT1080 cells; assay type: cell-based, human; conditions: data not shown
Protocol: as §2

## CCOc1ccc(C=C2SC(=O)N(CCN)C2=O)cc1 [Compound 76]
[1]
  effect on ERK-mediated Elk-1 phosphorylation (in words): inhibited
[2]; 1/ν vs 1/[I] plot
  y-intercept of reciprocal plot (indicating a single binding site): 1.8
[2]; fluorescence titration
  ERK2 fluorescence quenching / binding (in words): strong quenching; also recorded: bind to directly ERK2
[3]
  reduction in binding affinity compared to wild type ERK2: approximately 5 fold
[4]
  IC50: ~25 µM
[5]
  inhibition of cell proliferation in HT1080 (in words): inhibition of cell proliferation
